{"source": "patent US20150218516A1", "about": "“COMPOSITIONS AND METHODS FOR ENHANCING IMMUNE RESPONSES MEDIATED BY ANTIGEN-PRESENTING CELLS” (The Board of Regents of the University of Nebraska, priority 2007, published 2015)", "key": {"[1]": {"tested_on": "immunizing peptide and free peptides", "assay": "ELISA of sera from mice immunized with HBsAg CTL epitope-C5a agonist constructs", "assay_type": "in vivo", "conditions": "sera after three injections", "protocol": "(§1) Groups of six to eight BALB/c mice were given bilateral s.c. injections in the inguinal area with (100 al each side) of a PBS solution containing 50-100 μg of the peptides. Booster injections were given s.c. in the inguinal region at 21-day intervals. Sera for Ab analysis were obtained by retro-orbital bleeds of mice under CO2 narcosis.\nThus, it was of interest to determine whether sera from mice immunized with the control peptides and epitope-C5a agonist constructs contained Ab directed against any of the peptides. […] (SEQ ID NO:12), […]"}, "[2]": {"tested_on": "P815S (HBsAg transfectant) target cells", "assay": "HBsAg-specific CTL response of immunized mice, 51Cr-release cytotoxicity assay", "assay_type": "in vivo, BALB/c mice", "conditions": "for % Specific Lysis: s.c. in PBS", "protocol": "as §1\nThree weeks after secondary) (2° immunization and two weeks after tertiary)(3° immunization, two to three mice from each experimental group were sacrificed by cervical dislocation and their spleens removed aseptically. Pooled splenic single-cell suspensions were prepared in RPMI-1640 medium (Sigma, St. Louis, Mo.) containing 10% FBS (Hyclone, Salt Lake City, Utah) and the following supplements: 10 mM HEPES buffer, 50 μM 2-ME, 2 mM L-glutamine, 50 μg/ml gentamicin sulfate, 100 Um′ penicillin, and 50 μg/ml streptomycin (all supplements from Sigma). This supplemented complete medium is designated RP10-SC. For culture, 75×10^6 pooled spleen cells in 5 ml of RP10-SC were pipetted into a 25 cm^2 T-flask (Corning). Next, 5 ml of RP 10-SC containing 150 nM of synthetic, L^d MHC class I-restricted peptide, […] (SEQ ID NO:12) were added to the flask. The flasks were incubated undisturbed in an upright position at 37° C. in 5% CO2. After 4 days of incubation, the cells were recovered from the T-flasks, washed once by centrifugation in fresh RP10-SC, resuspended in 5 ml RP10-SC, counted, and adjusted to 5×10^6 viable cells/ml.\nThe specific cell target used for measuring CTL activity was P815S, a transfectant cell line of P815 (H-2^d) expressing the HBsAg (14). P815S was grown in RP10-SC medium containing 400 μg/ml geneticin disulfate (G418, Sigma). The parental H-2^d mastocytoma cell line, P815 (ATTC #TIB64) grown in RP10-SC medium, was used as a non-specific target for CTL assays to measure % non-specific lysis.\nThe target cells, either P815S or P815, were washed 2 times in RP10-SC. For labeling, 5×10^6 target cells were mixed with 250 μCi ^51Cr-sodium chromate[400-1200 Ci (14.8-44.4 TBq)]/[…]; NEN Dupont, Boston, Mass.) in a 1.0 ml volume in a 50 ml conical tube and incubated in a 37° C. water bath for 90 mins. After incubation, the labeled cells were washed 3 times by centrifugation using 15 ml volumes of fresh RP10-SC and allowed to stand at room temperature for 30 mins. The pelleted cells were resuspended in RP10-SC at 1×10^6 cells/ml.\nThe recovered splenic effector cells at 5×10^6 cells/ml were serially diluted in triplicate in wells of round-bottom 96 well plates (Corning, 25850) in a total volume of 100 al/well and using RP10-SC as the diluent. Next, 100 μl volumes of ^51Cr-labeled targets, P815S or P815, at 1×10^6 cells/ml were added to the wells. Maximum release (MR) wells contained 100 al of target cells and 100 al of 2% (v/v) Tween 20 while spontaneous release (SR) wells contained labeled cells in medium alone. Effector-to-target ratios of 50:1, 25:1, 12.5:1, and 6.25:1 were routinely employed. The plates were centrifuged at 400×g and incubated at 37° C. in 5% CO2 for 4 hrs. After incubation, the supernatant fractions in the wells were collected using a Skatron Supernatant Collection System (Skatron Instruments, Sterlin, Va.). The amount of ^51Cr radioactivity in the supernatant fractions was measured using a Wallac 1470 Wizard gamma counter (Turku, Finland)."}, "[3]": {"tested_on": "human umbilical artery", "assay": "Smooth muscle contraction of human umbilical artery", "assay_type": "cell-based", "protocol": "(§2) Statistical analysis of the values obtained from pharmacologic assays was performed using one-way analysis of variance (ANOVA)."}, "[4]": {"tested_on": "human PMNs", "assay": "MPO release from human PMNs", "assay_type": "cell-based", "protocol": "as §2"}, "[5]": {"tested_on": "Caki-1 cells", "assay": "In vitro cytotoxicity of T lymphocytes cultured with peptide-pulsed dendritic cells against Caki-1", "assay_type": "cell-based, human", "conditions": "cord blood-derived T lymphocytes cultured with dendritic cells exposed to the peptide"}, "[6]": {"tested_on": "A-375 cell line (melanoma)", "assay_type": "cell-based, human", "protocol": "(§3) The tumor peptide antigen tyrosinase is expressed on more than 70% of human melanoma cells that are human leukocyte antigen (HLA) A2 positive. […] The dendritic cells, presumably expressing the tyrosinase epitope, were then cultured with a lymphocyte-enriched cell population which was then cultured with melanoma cells to determine melanoma cell killing using a cytotoxic T lymphocyte assay."}, "[7]": {"tested_on": "SKmel-28", "assay": "In vitro cytotoxicity of T lymphocytes cultured with peptide-pulsed dendritic cells against SKmel-28", "assay_type": "cell-based, human", "conditions": "UCB or PBMC derived T lymphocytes cultured with dendritic cells exposed to the peptide", "protocol": "as §3"}, "[8]": {"tested_on": "LNCaP cells", "protocol": "An exemplary in vitro cytotoxicity assay comprises the following steps. Antigen presenting cells, such as dendritic cells, were obtained from bone marrow or blood. Dendritic cells were preferentially differentiated in culture through the addition of IL-4, GM-CSF, and TNFα for 7-10 days. Dendritic cells were then pulsed with peptides for 18 hours. MNCs were also isolated from spleens or blood (e.g., cord or peripheral) and cultured in IL-2 and GM-CSF for 7-10 days for enhanced lymphocyte proliferation. The pulsed dendritic cells were then co-cultured with the lymphocyte-enriched MNCs at a 1:10 ratio for 4 days. Lymphocyte-enriched MNC effector cells were then co-cultured with tumor target cells labeled with the bioactive fluorescent dye Calcein AM for 4 hours. Lysed cells were detected by photometrically measuring the released fluorescent dye.\nCertain prostate carcinomas express prostate-specific membrane antigen (PSMA). […] The fusion peptides were administered to APCs which were subsequently presented to a lymphocyte-enriched population from cord blood as described hereinabove in Example 6. After antigen presentation by pulsed DC in co-culture, CTLs were tested for their ability to lyse three different target cell monolayers in an in vitro cytotoxicity assay. […] The fusion peptides were also administered to APCs which were subsequently presented to a adult peripheral blood-derived CTLs. In vitro cytotoxicity against the human prostate cancer cell line LNCaP was then assessed using the bioactive fluorescent dye calcein AM (FIG. 11D)."}}, "note": "Entries after “also recorded” stand apart in the source; their conditions may differ. Non-standard residues stand in square brackets, D forms with d. Residues, ends and D or L forms follow the SMILES beside them."}
{"compound": "CC[C@H](C)[C@H](N)C(=O)N1CCC[C@H]1C(=O)N[C@@H](CCC(N)=O)C(=O)N[C@@H](CO)C(=O)N[C@@H](CC(C)C)C(=O)N[C@@H](CC(=O)O)C(=O)N[C@@H](CO)C(=O)N[C@@H](Cc1c[nH]c2ccccc12)C(=O)N[C@@H](Cc1c[nH]c2ccccc12)C(=O)N[C@H](C(=O)N[C@@H](CO)C(=O)N[C@@H](CC(C)C)C(=O)N[C@@H](CCCNC(=N)N)C(=O)N[C@@H](CCCNC(=N)N)C(=O)N[C@@H](Cc1ccc(O)cc1)C(=O)N[C@@H](CO)C(=O)N[C@@H](Cc1ccccc1)C(=O)N[C@@H](CCCCN)C(=O)N1CCC[C@H]1C(=O)N[C@@H](CCSC)C(=O)N1CCC[C@H]1C(=O)N[C@@H](CC(C)C)C(=O)N[C@H](C)C(=O)N[C@@H](CCCNC(=N)N)C(=O)O)[C@@H](C)O", "note": "(H-IPQSLDSWWTSLRRYSFKPMPL[dA]R-OH)", "values": [{"measurement": "serum binding to free peptides […] or YSFKPMPLaR", "setting": "[1]", "value": "did not bind"}, {"measurement": "% Specific Lysis", "setting": "[2]; Effector:Target 6.25:1, boost day 21, spleen cells day 42", "value": 9, "unit": "%"}, {"measurement": "% Specific Lysis", "setting": "[2]; Effector:Target 12.5:1, boost day 21, spleen cells day 42", "value": 14, "unit": "%"}, {"measurement": "% Specific Lysis", "setting": "[2]; Effector:Target 25:1, boost day 21, spleen cells day 42", "value": 23, "unit": "%"}, {"measurement": "% Specific Lysis", "setting": "[2]; Effector:Target 50:1, boost day 21, spleen cells day 42, restimulated 4 days with S28-39", "value": 32, "unit": "%"}, {"measurement": "Ag-specific CTL response (in words)", "setting": "[2]; two or three s.c. injections at 21 day intervals, no added adjuvant", "value": "significant CTL response; also recorded: generated an Ag-specific CTL response; also recorded: robust CTL activity"}, {"measurement": "EC50", "setting": "[3]; concentration resulting in 50% maximum contraction", "value": 0.161, "unit": "µM"}, {"measurement": "agonist behaviour relative to natural C5a (in words)", "setting": "[3]; umbilical artery contraction and MPO release assays", "value": "full agonists"}, {"measurement": "pD2 ± SE", "setting": "[3]; −log EC50 (M), mean ± SE, n=3", "value": "6.79 ± 0.31"}, {"measurement": "EC50", "setting": "[4]; 50% maximum release of myeloperoxidase", "value": 0.54, "unit": "µM"}, {"measurement": "pD2 ± SE", "setting": "[4]; −log EC50 (M), mean ± SE, n=3", "value": "6.27 ± 0.29"}]}
{"compound": "CSCC[C@H](NC(=O)[C@H](CC(=O)O)NC(=O)[C@H](CCCCN)NC(=O)[C@H](Cc1ccccc1)NC(=O)[C@H](CO)NC(=O)[C@@H](N)Cc1ccc(O)cc1)C(=O)N1CCC[C@H]1C(=O)N(C)[C@@H](CC(C)C)C(=O)N[C@H](C)C(=O)N[C@@H](CCCNC(=N)N)C(=O)O", "note": "[YSFKDMP(MeL)aR]", "values": [{"measurement": "cytotoxicity against tyrosinase-negative Caki-1 (in words)", "setting": "[5]", "value": "incapable of killing"}]}
{"compound": "YMNGTMSQV [tyrosinase antigen]", "values": [{"measurement": "cytotoxicity against A-375 (in words)", "setting": "[6]", "value": "minimal cytotoxicity"}, {"measurement": "cytotoxicity against SKmel-28 (in words)", "setting": "[7]", "value": "minimal cytotoxicity"}, {"measurement": "cytotoxicity against LNCaP (in words)", "setting": "[8]", "value": "did not exhibit significant cytotoxicity"}]}
